Values quoted from earlier work as cited in US9260408B2, “Dihydroquinoline-2-one derivatives” (Hoffmann-La Roche Inc., priority 2011, dated 2016).

How the values were obtained:
[1] = test system: rat model of chronic kidney disease; settings: cited from earlier work
[2] = test system: rats with experimental heart failure; settings: rat, in vivo; cited from earlier work
CYP11B2 = CYP11B2 (Homo sapiens, UniProt P19099); settings: patients with primary aldosteronism, cited from earlier work
Sequence of CYP11B2 (P19099 25-503): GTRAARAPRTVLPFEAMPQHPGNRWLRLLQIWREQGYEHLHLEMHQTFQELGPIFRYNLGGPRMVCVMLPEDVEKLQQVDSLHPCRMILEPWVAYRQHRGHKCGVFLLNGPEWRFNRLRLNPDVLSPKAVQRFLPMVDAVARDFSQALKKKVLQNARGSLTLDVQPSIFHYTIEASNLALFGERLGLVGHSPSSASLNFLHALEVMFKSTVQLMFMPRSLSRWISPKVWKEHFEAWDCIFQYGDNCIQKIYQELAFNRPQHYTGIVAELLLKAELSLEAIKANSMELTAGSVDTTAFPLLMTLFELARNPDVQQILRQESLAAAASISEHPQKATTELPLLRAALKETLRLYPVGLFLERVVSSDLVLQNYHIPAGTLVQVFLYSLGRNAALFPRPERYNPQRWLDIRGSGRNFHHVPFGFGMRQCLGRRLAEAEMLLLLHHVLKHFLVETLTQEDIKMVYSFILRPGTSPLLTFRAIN

SMILES	plasma aldosterone ([1]; FAD286: 4 weeks of treatment, spironolactone: 4 and 8 weeks of treatment)	renal effects (albuminuria, azotemia, renovascular hypertrophy, glomerular injury, PAI-1 and osteopontin mRNA, tubulointerstitial fibrosis) ([1]; angiotensin II and high salt treatment)	angiotensin II and salt-stimulated PAI-1 mRNA expression in the aorta and the heart ([1]; rat, in vivo)	blood pressure and cardiovascular function and structure [2]	kidney function and morphology [2]	circulating aldosterone levels (CYP11B2; oral)	blood pressure (CYP11B2)	hypokalemia (CYP11B2)	selectivity (effects on the glucocorticoid axis) (CYP11B2)
N#Cc1ccc(C2CCCc3cncn32)cc1 (stereo not drawn) [FAD286]	reduced	prevented these renal effects	not	improved	improve				
N#Cc1ccc([C@H]2CCc3cncn32)c(F)c1 [LCI699]						significantly lower	mildly decreased	corrected	poor selectivity
